Measured values from ChEMBL document CHEMBL1201862, “PubChem BioAssay data set” (2004).
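Test compounds were applied to cells in 96-well plates for 48 hours at 5 doses. GI50 marks 50% less growth.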 Activity calls are given as the source filed them. Cut-off read from the data, not from the text of the source: active = GI50 up to about 1.1 µM and inactive = higher.

Tests used:
Test in all cases: NCI anticancer screen, dose series, 48 h
[1] = system: HCC 2998
[2] = system: SF-268
[3] = system: 786-0
[4] = system: HL-60
[5] = system: K562
[6] = system: EKVX
[7] = system: OVCAR-4
[8] = system: SK-OV-3
[9] = system: Malme-3M
[10] = system: SNB-75
[11] = system: OVCAR-5
[12] = system: U-251
[13] = system: SK-MEL-2
[14] = system: SF-539
[15] = system: A498
[16] = system: SW-620
[17] = system: SR

| SMILES | GI50 [1] | GI50 [2] | GI50 [3] | GI50 [4] | GI50 [5] | GI50 [6] | GI50 [7] | GI50 [8] | GI50 [9] | GI50 [10] | GI50 [11] | GI50 [12] | GI50 [13] | GI50 [14] | GI50 [15] | GI50 [16] | GI50 [17] |
| --- | --- | --- | --- | --- | --- | --- | --- | --- | --- | --- | --- | --- | --- | --- | --- | --- | --- |
| [O-][S+](Cc1ccccc1)c1nc2ccccc2nc1-c1cccs1 (stereo unspecified) | 12.4 µM (inactive) | 17.8 µM (inactive) | 11.3 µM (inactive) | 3.49 µM (inactive) | 5.38 µM (inactive) | 27.5 µM (inactive) | 5.78 µM (inactive) | 29 µM (inactive) | 6.18 µM (inactive) | 17.6 µM (inactive) | 17.6 µM (inactive) | 18.4 µM (inactive) | 9.66 µM (inactive) | 16.4 µM (inactive) | – | – | – |
| CCCCC(C(=O)C(=O)Nc1ccccc1CC)C(=O)C(C)C (stereo unspecified) | > 100 µM (inactive) | > 100 µM (inactive) | > 100 µM (inactive) | > 100 µM (inactive) | > 100 µM (inactive) | > 100 µM (inactive) | > 100 µM (inactive) | > 100 µM (inactive) | > 100 µM (inactive) | – | > 100 µM (inactive) | > 100 µM (inactive) | > 100 µM (inactive) | > 100 µM (inactive) | > 100 µM (inactive) | > 100 µM (inactive) | – |
| O=C(COc1ccc(/C=C/C(=O)c2ccc(Cl)cc2)cc1)Nc1c(Cl)cccc1Cl | – | > 100 µM (inactive) | > 100 µM (inactive) | 0.0607 µM (active) | – | > 100 µM (inactive) | 94 µM (inactive) | 58.3 µM (inactive) | > 100 µM (inactive) | 56.4 µM (inactive) | 40.8 µM (inactive) | 68.2 µM (inactive) | – | 80.7 µM (inactive) | > 100 µM (inactive) | > 100 µM (inactive) | 50 µM (inactive) |
| Cc1c(C(=O)/C=C/C=C/c2ccccc2)[n+]([O-])c2ccccc2[n+]1[O-] | 18.9 µM (inactive) | 29.5 µM (inactive) | 21.9 µM (inactive) | 26.1 µM (inactive) | 31.8 µM (inactive) | 51.2 µM (inactive) | 31.2 µM (inactive) | 40.5 µM (inactive) | 28.9 µM (inactive) | 34.2 µM (inactive) | 66.1 µM (inactive) | 33.7 µM (inactive) | 31.7 µM (inactive) | 40 µM (inactive) | 51.8 µM (inactive) | 22.4 µM (inactive) | – |
| O=C1C2=C(c3ccccc31)C(c1ccccc1Cl)N1C(=O)CCSC1=N2 (stereo unspecified) | > 100 µM (inactive) | > 100 µM (inactive) | > 100 µM (inactive) | > 100 µM (inactive) | > 100 µM (inactive) | > 100 µM (inactive) | 45.4 µM (inactive) | > 100 µM (inactive) | > 100 µM (inactive) | 55.2 µM (inactive) | > 100 µM (inactive) | > 100 µM (inactive) | > 100 µM (inactive) | > 100 µM (inactive) | > 100 µM (inactive) | > 100 µM (inactive) | – |
| CC(C)(C)C1=CC(=C(P(=O)(O)O)P(=O)(O)O)C=C(C(C)(C)C)C1=O | > 50 µM (inactive) | > 50 µM (inactive) | > 50 µM (inactive) | > 50 µM (inactive) | > 50 µM (inactive) | > 50 µM (inactive) | > 50 µM (inactive) | > 50 µM (inactive) | > 50 µM (inactive) | > 50 µM (inactive) | > 50 µM (inactive) | – | > 50 µM (inactive) | > 50 µM (inactive) | > 50 µM (inactive) | > 50 µM (inactive) | – |
| CC1=C(C)C(=O)c2c(cc3c4ccccc4ccn23)C1=O | – | – | > 100 µM (inactive) | – | > 100 µM (inactive) | > 100 µM (inactive) | – | > 100 µM (inactive) | > 100 µM (inactive) | > 100 µM (inactive) | – | > 100 µM (inactive) | > 100 µM (inactive) | > 100 µM (inactive) | – | > 100 µM (inactive) | – |
| CC1(C)C(=O)C(O)=CC2C1=CCC1C2(C)C(=O)CC2(C)C(C(C)(O)C(=O)CC(O)C(C)(C)O)C(O)CC12C (stereo unspecified) | 3.35 µM (inactive) | 3.11 µM (inactive) | 2.45 µM (inactive) | 3.17 µM (inactive) | 4.66 µM (inactive) | 10 µM (inactive) | 2.82 µM (inactive) | 3.72 µM (inactive) | 3.54 µM (inactive) | 0.989 µM (active) | 25.2 µM (inactive) | 2.65 µM (inactive) | 2.61 µM (inactive) | 2.57 µM (inactive) | 2 µM (inactive) | 3.57 µM (inactive) | 4 µM (inactive) |
| C=CCSc1ncnc2c1ncn2C1OC(CO)C(O)C1O (stereo unspecified) | 24.3 µM (inactive) | 34.7 µM (inactive) | 79.4 µM (inactive) | 36 µM (inactive) | 5.35 µM (inactive) | > 100 µM (inactive) | > 100 µM (inactive) | 30.5 µM (inactive) | > 100 µM (inactive) | 65.2 µM (inactive) | 60.5 µM (inactive) | > 100 µM (inactive) | 58.7 µM (inactive) | 37.5 µM (inactive) | 58.2 µM (inactive) | 14.4 µM (inactive) | > 100 µM (inactive) |
| CCN(CC)c1ccc(Cl)c2c1C(O)(C(C)C)C2(C)C (stereo unspecified) | 14.8 µM (inactive) | 28.2 µM (inactive) | 14.5 µM (inactive) | 15.6 µM (inactive) | 19 µM (inactive) | – | 19 µM (inactive) | 15.6 µM (inactive) | 13.9 µM (inactive) | 18 µM (inactive) | 16.6 µM (inactive) | 16.8 µM (inactive) | 14.1 µM (inactive) | 19.8 µM (inactive) | 21.3 µM (inactive) | 18.1 µM (inactive) | – |
| CCOC(=O)c1cc2c3c(c(O)c(OC)c2s1)N(C(=O)c1cc2c4c(c(O)c(OC)c2s1)N(C(C)=O)CC4)CC3 | > 100 µM (inactive) | > 100 µM (inactive) | 36.6 µM (inactive) | 28.2 µM (inactive) | > 100 µM (inactive) | > 100 µM (inactive) | 71.6 µM (inactive) | 22 µM (inactive) | 77.8 µM (inactive) | 23.4 µM (inactive) | > 100 µM (inactive) | 63.8 µM (inactive) | – | 38.5 µM (inactive) | 31.2 µM (inactive) | > 100 µM (inactive) | – |
| CC/C(=C(\c1ccccc1)c1ccc(OCC[N+](C)(C)C)cc1)c1ccccc1 [TAMOXIFEN METHYL IODIDE] | 17.1 µM (inactive) | 15.3 µM (inactive) | 13.7 µM (inactive) | 2.52 µM (inactive) | 5.65 µM (inactive) | 15.6 µM (inactive) | 13 µM (inactive) | 17.5 µM (inactive) | 12.8 µM (inactive) | 8.85 µM (inactive) | – | 13.4 µM (inactive) | 13.8 µM (inactive) | 21.6 µM (inactive) | 19 µM (inactive) | 16 µM (inactive) | – |
| Cc1ccc2c(c1)-c1c3c(nn1C)-c1ccccc1SC3O2 (stereo unspecified) | 34 µM (inactive) | 55.6 µM (inactive) | > 100 µM (inactive) | 24.5 µM (inactive) | 35.1 µM (inactive) | 44.5 µM (inactive) | – | > 100 µM (inactive) | > 100 µM (inactive) | 55.8 µM (inactive) | > 100 µM (inactive) | > 100 µM (inactive) | 64.9 µM (inactive) | > 100 µM (inactive) | 49.7 µM (inactive) | > 100 µM (inactive) | – |
| COc1ccc(C(C2=C(C)C(=O)c3ccccc3C2=O)c2ccc(C(C)C)cc(=O)c2O)cc1 (stereo unspecified) | – | 3.77 µM (inactive) | 2.53 µM (inactive) | 2.61 µM (inactive) | 3.55 µM (inactive) | 2.77 µM (inactive) | 6.49 µM (inactive) | 3.49 µM (inactive) | 4.26 µM (inactive) | 2.59 µM (inactive) | 2.06 µM (inactive) | 3.12 µM (inactive) | 1.16 µM (inactive) | 2.69 µM (inactive) | – | 6.1 µM (inactive) | 3.29 µM (inactive) |
| Cc1ccc(-c2cc(-c3ccco3)nc(N)n2)o1 | – | > 100 µM (inactive) | > 100 µM (inactive) | > 100 µM (inactive) | > 100 µM (inactive) | 65.2 µM (inactive) | > 100 µM (inactive) | – | > 100 µM (inactive) | 37.2 µM (inactive) | > 100 µM (inactive) | – | > 100 µM (inactive) | > 100 µM (inactive) | – | > 100 µM (inactive) | > 100 µM (inactive) |
| CCCCCCCCCCCCCCCC(=O)OCC1OC(N2C(=O)/C(=N\NC(N)=S)c3ccc([N+](=O)[O-])cc32)C(OC(C)=O)C1OC(C)=O (stereo unspecified) | > 100 µM (inactive) | > 100 µM (inactive) | > 100 µM (inactive) | > 100 µM (inactive) | > 100 µM (inactive) | 39.4 µM (inactive) | > 100 µM (inactive) | 48.4 µM (inactive) | > 100 µM (inactive) | > 100 µM (inactive) | > 100 µM (inactive) | 78 µM (inactive) | > 100 µM (inactive) | > 100 µM (inactive) | – | > 100 µM (inactive) | > 100 µM (inactive) |
| CCOC(=O)C/N=c1\nc(SC)sc2c(C(=O)OCC)nc(Sc3ccccc3)n12 | 40.1 µM (inactive) | > 100 µM (inactive) | 21.6 µM (inactive) | > 100 µM (inactive) | 16.1 µM (inactive) | 45.1 µM (inactive) | 41.2 µM (inactive) | > 100 µM (inactive) | 32.6 µM (inactive) | – | > 100 µM (inactive) | – | 58.9 µM (inactive) | – | – | > 100 µM (inactive) | 4.74 µM (inactive) |
| COc1cc(/C=C/C(=O)c2sc(-n3nc(-c4ccccc4)cc3-c3ccccc3)nc2C)ccc1O | > 100 µM (inactive) | > 100 µM (inactive) | > 100 µM (inactive) | 49.9 µM (inactive) | 32.7 µM (inactive) | 4.7 µM (inactive) | – | > 100 µM (inactive) | > 100 µM (inactive) | 7.36 µM (inactive) | > 100 µM (inactive) | > 100 µM (inactive) | > 100 µM (inactive) | > 100 µM (inactive) | > 100 µM (inactive) | > 100 µM (inactive) | – |
